In patent EP0987025A1, “Pharmaceitical composition or composition package containing a pyrimidine nucleoside analogue and a purine nucleoside analogue” (priority 1998, dated 2000):
Where two headings read alike, the source gives them in different places.

What was measured:
Format in all cases: in vivo, C57BL/6 mice
[1] = test system: circulating B cells; experiment: Flow cytometry of circulating lymphocytes; details: after Fludara suspension
Source text: Whole blood samples were stained with antimouse L3T4/CD4 fluorescein isothiocyanate (FITC) conjugated (Boehringer Mannheim Biochemica) for the detection of CD4^+ lymphocytes, antimouse Ly-2R phycoerythrin (PE) conjugated (Boehringer Mannheim Biochemica) for the detection of CD8a lymphocytes, antimouse Thy-1.2 FITC conjugated (Boehringer Mannheim Biochemica) for the detection of T cells, and antimouse Ly 5 (B220)-PE Monoclonal antibody (Cederlane, Ontario, Canada) for the detection of committed B cell precursors. Samples were analyzed by FACS (Becton Dickinson).

[2] = test system: LP-BM5; experiment: Serum IgG by ELISA (hypergammaglobulinemia) in LP-BM5 infected mice; details: about 4 months from infection
Description: Serum IgG levels were determined using an ELISA technique. Briefly, polyvinylchloride microtiter plates (Immulon I; Dynatech Laboratories, Chantilly, VA) were coated with goat anti mouse IgG (Sigma) diluted in 0.135 M sodium chloride for ≥ 24 hr. After four washes with 0.1% tween PBS (TPBS), the plates were blocked with 5% bovin serum albumin (BSA) in PBS for 1 h at 37°C and washed again with TPBS. Serial dilutions of mouse serum were added and after incubation for 1 h at 37°C, the plates were washed four times with TPBS, and 100 µl of horseradish (HRP)-conjugated goat anti-mouse IgG (Bio-Rad, Richmond, CA) was added. After 1 h incubation at 37°C, serum levels were determined using a color development solution containing 2.2 mM O-Phenylenediamine. Absorbance was measured at 492 nm on Model 2550 EIA READER (BIO-RAD). Absolute serum IgG concentrations were obtained using known concentrations of standard mouse IgG.
(§1) First, the efficacy of 2-fluoro-ara-AMP (F-araAMP, Fludara) in inhibiting murine AIDS (MAIDS), a disease characterized by a lymphoproliferative disorder (lymphadenopathy and splenomegaly), associated with severe immunodeficiency and hypergammaglobulinemia, was evaluated. The disease develops in some strains of mice (C57BL/6) that are infected with a murine leukemia virus mixture termed LP-BM5. In the first preliminary experiments (after about 4 months from infection) LP-BMS infected animals were treated with three different concentrations of F-ara-AMP: 0.065 mg/mouse, 0.325 mg/mouse, 0.650 mg/mouse. The animals of each group were treated intraperitoneally for 3 days a week and for 3 weeks. At the end of the treatment animals were killed and splenomegaly, lymphadenopathy and hypergammaglobulinemia were evaluated.

[3] = test system: LP-BM5; details: for Lymphad. (% inh.) / Splenom. (% inh.): about 4 months from infection
Source text: LP-BM5 virus was provided by Robert Yetter (Veternas Administration Hospital, Baltimore, MD) and was maintained in a persistently infected SC- 1 cell line as described (Hosier D.E., Yetter R.A., Morse H.C. III, "Functional T lymphocytes are required for a murine retrovirus induced immunodeficiency disease (MAIDS)", J. Exp. Med. 1987; 165:1737-42). C57BL/6 female mice were purchased from Nossan, Milan, Italy and were used at 5 weeks of age. Animals were infected by means of two successive intraperitoneal injections at 24-hr intervals. In the experiments reported three different virus preparations were used.
Mice were housed at 22±1°C with a 12-hr light-dark cycle, 60±5% humidity, and 12 air changes/hr.
as §1
Infected mice after 7 weeks from infection were treated intraperitoneally with Fludara as follows: • 1. 0.65 mg/mouse once a day for 4 days a week (total dose 7.8 mg/mouse); • 2. 0.65 mg/mouse twice a day for 5 days a week (total dose 19.5 mg/mouse); • 3. […]

[4] = test system: LP-BM5; experiment: Histopathological examination of liver and lymph node sections; details: in drinking water at 15 mg/mouse
Source text: Samples of lymph nodes and liver from three animals in each treatment group were fixed in 4% paraformaldehyde in phosphate-buffered saline, sectioned, and stained with May Grunwald-Giemsa.

[5] = 0.065 mg/mouse i.p. 3 days a week for 3 weeks
[6] = 0.325 mg/mouse i.p. 3 days a week for 3 weeks
[7] = 0.650 mg/mouse i.p. 3 days a week for 3 weeks
[8] = group a: 3.0 mg i.p. once a day for 5 consecutive days, 4 weeks, after 7 weeks of infection
[9] = group b: 3.0 mg i.p. twice a day for 5 consecutive days, 4 weeks, after 7 weeks of infection
[10] = group c: 10 mg in drinking water for 5 consecutive days, 4 weeks, after 7 weeks of infection
[11] = group d: 15 mg in drinking water for 5 consecutive days, 4 weeks, after 7 weeks of infection
[12] = regime 1: 0.65 mg once a day 4 days/week for 3 weeks i.p., after 7 weeks of infection
[13] = regime 2: 0.65 mg twice a day 5 days/week for 4 weeks i.p., after 7 weeks of infection
[14] = regime 3: 3.00 mg once a day 5 days/week for 3 weeks i.p., after 7 weeks of infection
[15] = treatment c: after 6 weeks of infection 3 mg F-ara-AMP i.p. twice a day, 5 consecutive days, 4 weeks, at 10 weeks after infection
[16] = treatment g: after 6 weeks of infection 3 mg F-ara-AMP i.p. twice a day 4 weeks, then interrupted, at 14 weeks after infection

Nc1nc(F)nc2c1ncn2[C@@H]1O[C@H](COP(=O)(O)O)[C@@H](O)[C@@H]1O [F-ara-AMP, Fludarabine phosphate]
number of circulating B cells after suspension of administration [1]: returns to normal values | Hyperg. (% inh.) [2, 5]: 12±10% | Hyperg. (% inh.) [2, 6]: 16±7% | Hyperg. (% inh.) [2, 7]: 19±4% | Lymphad. (% inh.) [3, 5]: 20±15% | Splenom. (% inh.) [3, 5]: 0% | Lymphad. (% inh.) [3, 6]: 26±9% | Splenom. (% inh.) [3, 6]: 0% | Lymphad. (% inh.) [3, 7]: 49±6% | Splenom. (% inh.) [3, 7]: 0% | Lymph node w. [3, 8]: 0.54 ± 0.32 g | Spleen w. [3, 8]: 0.50 ± 0.25 g | Lymph node w. [3, 9]: 0.05 ± 0.02 g | Spleen w. [3, 9]: 0.22 ± 0.06 g | Lymph node w. [3, 10]: 0.16 ± 0.16 g | Spleen w. [3, 10]: 0.31 ± 0.09 g | Lymph node w. [3, 11]: 0.28 ± 0.23 g | Spleen w. [3, 11]: 0.28 ± 0.13 g | Lymph node w. [3, 12]: 2.63 ± 0.57 g | Spleen weight [3, 12]: 1.01 ± 0.24 g | Lymph node w. [3, 13]: 2.11 ± 0.54 g | Spleen weight [3, 13]: 0.87 ± 0.20 g | Lymph node w. [3, 14]: 1.75 ± 0.53 g | Spleen weight [3, 14]: 0.84 ± 0.17 g | Lymph node w. [3, 15]: 0.042 ± 0.018 g | Spleen w. [3, 15]: 0.130 ± 0.004 g | Lymph node w. [3, 16]: 0.290 ± 0.05 g | Spleen w. [3, 16]: 0.41 ± 0.200 g | toxicity in the liver (necrotic cells) [4]: some toxicity
